As usually defined, the EC50 is the concentration needed to bring the measured effect to its halfway point. The AC50 is the concentration giving half of the maximal activity seen.

The structures appear in SMILES notation. The source made the active and inactive calls. Where only a bound is given, the exact number is not on record here.

In experiment [1] the target is T1, Short transient receptor potential channel 4 (Mus musculus, UniProt Q9QUQ5).
T1 sequence (Q9QUQ5 whole entry): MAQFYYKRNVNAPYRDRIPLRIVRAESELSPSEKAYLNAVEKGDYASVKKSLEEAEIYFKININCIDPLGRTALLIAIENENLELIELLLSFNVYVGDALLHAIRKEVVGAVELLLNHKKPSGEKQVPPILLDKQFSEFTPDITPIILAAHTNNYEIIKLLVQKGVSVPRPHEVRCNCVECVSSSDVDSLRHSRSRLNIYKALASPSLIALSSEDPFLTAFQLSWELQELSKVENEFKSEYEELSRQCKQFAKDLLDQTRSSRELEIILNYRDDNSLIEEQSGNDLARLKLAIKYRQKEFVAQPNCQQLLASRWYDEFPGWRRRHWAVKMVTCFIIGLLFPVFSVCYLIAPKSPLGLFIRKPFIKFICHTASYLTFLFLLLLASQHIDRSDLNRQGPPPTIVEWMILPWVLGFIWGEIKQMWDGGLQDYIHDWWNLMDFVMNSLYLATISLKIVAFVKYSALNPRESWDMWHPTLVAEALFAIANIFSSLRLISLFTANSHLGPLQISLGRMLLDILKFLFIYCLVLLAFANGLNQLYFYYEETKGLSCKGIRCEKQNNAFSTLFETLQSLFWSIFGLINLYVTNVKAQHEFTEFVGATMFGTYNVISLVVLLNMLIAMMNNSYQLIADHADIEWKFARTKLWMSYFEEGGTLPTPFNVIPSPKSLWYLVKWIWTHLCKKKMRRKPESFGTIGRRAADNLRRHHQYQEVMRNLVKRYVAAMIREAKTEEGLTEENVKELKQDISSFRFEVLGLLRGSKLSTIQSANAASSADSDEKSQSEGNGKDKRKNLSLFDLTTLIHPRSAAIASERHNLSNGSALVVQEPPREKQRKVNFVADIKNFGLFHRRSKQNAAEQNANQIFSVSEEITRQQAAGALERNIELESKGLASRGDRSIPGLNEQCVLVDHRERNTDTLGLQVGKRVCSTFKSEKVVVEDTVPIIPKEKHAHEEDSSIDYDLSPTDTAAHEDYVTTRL
The experiment can be described thus: block of DAMGO-driven TRPC4 calcium entry – cell-based, HEK293 TRPC4/mu-opioid, Fluo-4 calcium, dose response (AID 434942).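 Also: potency of inhibitors blocking the TRPC4 calcium response.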 The class given is functional.

Experiment [2] deals with HEK293. The experiment can be described thus: NOD2 signaling inhibitors in MDP-stimulated cells, cell-based, uHTS, luminescence (AID 2001). The class given is functional. The following applies: Homo sapiens.
The subject of the next experiment is INS1. The experiment can be described thus: INS-1E survival protection against cytokine death – cell-based, luminescence, retest, dose response (AID 449756).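 Also: cell death triggered by IL-1 beta plus TNF-alpha plus IFN-gamma mixture; protective hits raise ATP signal compared with cytokine alone wells.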 Format: functional. As to conditions: Rattus norvegicus.
Experiment [3] has as its system HEK293. The experiment is described as follows: cells. Format: functional, cell-based. As to conditions: Homo sapiens.
Experiment [4] concerns the target T2, Replicative DNA helicase DnaB (Mycobacterium tuberculosis, UniProt P9WMR3).
T2 sequence (P9WMR3 whole entry): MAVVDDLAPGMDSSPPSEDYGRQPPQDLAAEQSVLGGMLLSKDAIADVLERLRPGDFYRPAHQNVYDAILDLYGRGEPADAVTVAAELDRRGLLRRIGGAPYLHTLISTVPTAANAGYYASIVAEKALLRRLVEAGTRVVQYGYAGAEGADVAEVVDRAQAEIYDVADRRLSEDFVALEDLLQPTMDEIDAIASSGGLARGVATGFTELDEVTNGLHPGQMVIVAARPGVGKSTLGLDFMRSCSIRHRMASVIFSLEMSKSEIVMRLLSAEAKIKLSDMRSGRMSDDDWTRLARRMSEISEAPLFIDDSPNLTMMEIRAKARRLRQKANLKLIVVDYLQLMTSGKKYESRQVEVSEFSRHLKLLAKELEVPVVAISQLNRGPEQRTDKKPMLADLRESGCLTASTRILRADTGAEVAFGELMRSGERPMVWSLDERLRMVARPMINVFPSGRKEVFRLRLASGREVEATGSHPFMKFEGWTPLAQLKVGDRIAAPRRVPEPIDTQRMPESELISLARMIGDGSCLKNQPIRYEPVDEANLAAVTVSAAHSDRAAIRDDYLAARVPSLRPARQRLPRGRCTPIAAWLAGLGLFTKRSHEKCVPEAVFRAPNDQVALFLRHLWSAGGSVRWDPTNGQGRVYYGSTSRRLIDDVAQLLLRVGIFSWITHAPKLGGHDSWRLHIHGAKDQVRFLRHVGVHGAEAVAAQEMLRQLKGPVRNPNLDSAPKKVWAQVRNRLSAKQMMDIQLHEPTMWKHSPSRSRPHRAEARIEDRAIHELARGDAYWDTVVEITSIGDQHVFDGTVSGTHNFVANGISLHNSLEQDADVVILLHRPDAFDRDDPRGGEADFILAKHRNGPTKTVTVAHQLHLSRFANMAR
The experiment can be described thus: DnaB intein splicing inhibitors, dose response, biochemical, cell-free fluorescence (AID 449749). The class given is functional.

For another experiment, the target named is T3, Protein RecA (Mycobacterium tuberculosis, UniProt P9WHJ3).
T3 sequence (P9WHJ3 whole entry): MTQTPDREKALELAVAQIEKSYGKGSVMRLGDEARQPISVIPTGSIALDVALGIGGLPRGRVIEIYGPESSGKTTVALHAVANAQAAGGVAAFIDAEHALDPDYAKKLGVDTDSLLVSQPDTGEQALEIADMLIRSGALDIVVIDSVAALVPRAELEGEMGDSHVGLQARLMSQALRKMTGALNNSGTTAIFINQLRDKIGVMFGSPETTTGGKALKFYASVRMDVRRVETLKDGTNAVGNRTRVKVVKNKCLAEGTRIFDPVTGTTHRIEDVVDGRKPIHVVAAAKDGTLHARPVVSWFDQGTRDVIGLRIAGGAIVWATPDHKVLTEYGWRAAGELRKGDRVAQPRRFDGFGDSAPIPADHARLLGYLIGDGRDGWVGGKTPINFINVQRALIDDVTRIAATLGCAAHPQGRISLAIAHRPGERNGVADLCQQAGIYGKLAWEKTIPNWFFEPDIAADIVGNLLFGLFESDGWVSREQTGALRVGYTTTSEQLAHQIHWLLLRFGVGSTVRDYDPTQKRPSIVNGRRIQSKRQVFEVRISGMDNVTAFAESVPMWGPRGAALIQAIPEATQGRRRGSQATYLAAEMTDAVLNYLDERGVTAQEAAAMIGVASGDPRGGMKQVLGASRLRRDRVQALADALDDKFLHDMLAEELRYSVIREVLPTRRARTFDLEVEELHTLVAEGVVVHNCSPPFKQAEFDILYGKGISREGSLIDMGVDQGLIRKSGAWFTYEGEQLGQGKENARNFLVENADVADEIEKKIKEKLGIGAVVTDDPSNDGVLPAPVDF
The experiment can be described thus: Fluorescence Cell-Free Homogeneous Dose Retest to Identify Inhibitors of RecA-Intein Splicing Activity. [Related pubchem assays (depositor defined):AID2097, AID2223, AID489010, AID492950]. Format: functional.

The test system of experiment [5] is HEK293. The experiment can be described thus: cells. The class given is functional, cell-based. The following applies: Homo sapiens. This is another data set of the same source.
Experiment [6] deals with HEK293. The experiment is described as follows: inhibition of NOD1-driven NF-kB reporter – cell-based, luminescence, uHTS, primary screen (AID 1578). The class given is functional. The following applies: Homo sapiens.
Experiment [7] in a line: Luminescence Cell-Based Dose Confirmation HTS to Identify Inhibitors of Platelet Dense Granule Release. [Related pubchem assays: 1663 (Primary HTS), 1678 (Summary of Project)]. Format: functional.
Experiment [8] deals with Luciferin 4-monooxygenase (Photinus pyralis, UniProt P08659). The experiment is described as follows: inhibition of purified Photinus pyralis luciferase – biochemical, luminescence, dose response (AID 1891).
Experiment [9] in a line: HEK-293T viability loss after treatment – luminescence, T-cell screen hits, cytotoxicity control for TCR NF-kB inhibitor project, dose response (AID 489026).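 Also: cells exposed to compound about 14 hours before the viability readout.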 The class given is functional, cell-based.
Another experiment deals with Protein Wnt-3a (Mus musculus, UniProt P27467). The experiment is described as follows: antagonism of Wnt3a pathway luciferase reporter – Wnt-LIGHT cells, luminescence, selectivity assay for Gli-SUFU antagonist project, dose response (AID 651570).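 Also: Wnt-LIGHT reporter cells stimulated with conditioned medium from Wnt3a-producing cells.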 Format: functional. The following applies: read-out: IC50_Mean. On the technique in general: A reporter such as luciferase makes a cellular process visible.

Experiment [10] in a line: reduction of Shn3 3'UTR-driven luciferase in osteoblasts – cell-based, Clone20 osteoblasts, firefly luciferase, cherry-picked, dose response (AID 624132).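 Also: firefly luciferase luminescence from reporter carrying the Shn3 3'UTR in osteoblasts.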 The class given is functional.
Experiment [11] is described as follows: non-specific 3'UTR reporter inhibition in Clone20-Shn3RL – cell-based, Renilla luciferase, cherry-picked, counter-screen for Shn3 inhibitor project, dose response (AID 624133). The class given is functional.
A short description of experiment [12]: Luminescence Cell-Based Dose Retest to Confirm Inhibitors of Cancer Stem Cells. [Related pubchem assays (depositor defined):AID2717, AID2721]. Format: functional. As to conditions: Homo sapiens.
The nature of experiment [13]: intracellular Trypanosoma cruzi inhibitors in host cells – cell-based, plate reader, cherry-pick samples, set 3, dose response (AID 651818).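 Also: compounds incubated with infected cells for about four days.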 The class given is functional.

Chain of Protein Wnt-3a (P27467 whole entry): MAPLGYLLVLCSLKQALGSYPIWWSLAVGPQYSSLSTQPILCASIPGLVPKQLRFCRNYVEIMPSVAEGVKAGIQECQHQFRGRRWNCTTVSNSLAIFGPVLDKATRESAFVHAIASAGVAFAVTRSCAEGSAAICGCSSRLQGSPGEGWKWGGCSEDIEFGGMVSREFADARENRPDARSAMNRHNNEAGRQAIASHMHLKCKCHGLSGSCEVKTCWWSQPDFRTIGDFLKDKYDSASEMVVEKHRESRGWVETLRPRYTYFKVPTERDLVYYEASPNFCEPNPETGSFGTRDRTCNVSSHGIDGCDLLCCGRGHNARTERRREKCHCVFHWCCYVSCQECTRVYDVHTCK
Chain of Luciferin 4-monooxygenase (P08659 whole entry): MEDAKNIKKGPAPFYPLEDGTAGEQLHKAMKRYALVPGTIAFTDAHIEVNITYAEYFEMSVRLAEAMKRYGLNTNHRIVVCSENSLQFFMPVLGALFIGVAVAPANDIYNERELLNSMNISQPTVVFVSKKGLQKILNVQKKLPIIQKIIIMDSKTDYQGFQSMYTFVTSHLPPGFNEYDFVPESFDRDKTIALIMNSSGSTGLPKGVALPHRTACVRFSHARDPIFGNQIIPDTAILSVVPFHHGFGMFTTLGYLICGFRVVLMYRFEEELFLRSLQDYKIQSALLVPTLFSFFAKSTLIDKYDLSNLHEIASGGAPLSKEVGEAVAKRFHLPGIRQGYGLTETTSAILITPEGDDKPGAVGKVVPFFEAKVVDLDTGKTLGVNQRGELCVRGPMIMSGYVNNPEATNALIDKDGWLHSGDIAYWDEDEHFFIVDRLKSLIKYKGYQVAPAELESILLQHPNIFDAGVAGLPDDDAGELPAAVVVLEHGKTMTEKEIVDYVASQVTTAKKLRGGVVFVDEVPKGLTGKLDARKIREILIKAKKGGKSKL

For the compound `OCCNCc1cc(Br)ccc1OCc1ccc(F)cc1`, in experiment [1], the EC50 was 1.88 µM (active).
With `O=C(C(Cl)Cl)N1c2ccccc2OCC1c1ccccc1` (configuration not stated), the IC50 is > 20 µM (inactive) in the experiment on HEK293 [2], > 20 µM (inactive) with HEK293 [3] and 16.9 µM (active) in the experiment with HEK293 [5]. The AC50 is 8.54 µM (active) in the experiment on INS1 and 10 µM (active) in [4]. In addition, the EC50 on Protein RecA was 1.25 µM (active); in the experiment on HEK293 [6] it was 13.8 µM (active).
As for `CCN(CC)Cc1cc(CCNC(=O)c2ccc(Cl)cc2)ccc1O`, in experiment [1], the EC50 was 4.73 µM (active).
Consider `CCCCC(=O)N(c1ccc(C(=O)O)cc1)c1nc(-c2ccc(Cl)cc2)c(CC)s1`, for which the results for the EC50 in [7], in experiment [8] and in [1] were > 112 µM (not active), > 112 µM (not active) and 10.6 µM (active), respectively.
As for `CC(Sc1n[nH]c2c3ccccc3nc-2n1)C(=O)N(C)C1CCCCC1` (configuration not stated), the IC50 in the experiment on HEK293 [2] is 6.67 µM (active); in the experiment on HEK293 [3] it was 12.9 µM (active); in the experiment with HEK293 [5] it was 6.41 µM (active). Moreover, in the experiment with INS1, the AC50 was 16.1 µM (active). For the same compound, in the experiment on HEK293 [6], the EC50 was 4.74 µM (active).
With `CC(C)(C)OC(=O)NCCCCCc1cn(CC(=O)NCCCCCCCCCCC(=O)N2CCN(C(=O)OC(C)(C)C)CC2)nn1`, the IC50 in experiment [9] is > 80 µM (inactive); on Protein Wnt-3a, 21.9 µM (inactive).
In the case of `Cc1cccc(CCN2C(N(C)C)=NC[C@@H]2CC(C)C)c1`, the IC50 at Protein Wnt-3a is 9.13 µM (active). In addition, the values for the AC50 in [10] and in experiment [11] were 1.45 µM (active) and 8.04 µM (active), respectively.
On to `Cc1nc(C2CCC3C4CCC5=CC(=O)CC[C@]5(C)C4CC[C@]23C)cs1` (some centres not stated), for which the IC50 in the experiment on HEK293 [2] is 3.56 µM (active); with HEK293 [3] it was 9.14 µM (active); in the experiment on HEK293 [5] it was 3.42 µM (active). For the same compound, in [12], the AC50 is 6.32 µM (active). Besides, the EC50 with HEK293 [6] was 2.24 µM (active).
Consider `NC(=O)c1nsc(C(=O)N(Cc2ccccc2F)C(C(=O)NCC2CCCO2)c2ccc(F)cc2)c1N` (configuration not stated), for which the concentration for a half-maximal effect (EC50) in experiment [1] is 0.473 µM (active).
For the compound `COCCNc1nc2c(c(=O)n(C)c(=O)n2C)n1Cc1cccc(C(F)(F)F)c1`, in the experiment with INS1, the AC50 was 6.6 µM (active). Also, the IC50 on Protein Wnt-3a was 5.24 µM (active).
In the case of `Cn1nc(CC(=O)NCc2ccc(C(F)(F)F)cc2)c2ccccc2c1=O`, on Protein Wnt-3a, the IC50 was 1.09 µM (active).
`O=C(c1ccc(Cl)cc1)C1CCCN(C2CCSCC2)C1` (configuration not stated): the EC50 in experiment [1] was 0.531 µM (active).
For `C/C(=N\Nc1ccc(Cl)nn1)c1ccccc1O`, the IC50 at Protein Wnt-3a was 50 µM (inactive).
With `COc1cc(/C=N/Nc2nc3c(c(=O)n(C)c(=O)n3C)n2Cc2ccccc2)ccc1OC(=O)c1ccco1`, the IC50 with HEK293 [2] is 5.98 µM (active); in the experiment with HEK293 [3], 12.3 µM (active); with HEK293 [5], 3.73 µM (active). The EC50 with HEK293 [6] is 5.22 µM (active).
For the compound `C[C@@H]1CN([C@@H](C)CO)C(=O)Cc2cc(NC(=O)Nc3cccc4ccccc34)ccc2O[C@@H]1CN(C)Cc1ccc(Cl)c(Cl)c1`, the half-maximal activity concentration (AC50) in [13] is 3.21 µM (active).
The same measure, in the same setting: the same measure for `C[C@H](CO)N1C[C@H](C)[C@H](CN(C)Cc2ccc(C(F)(F)F)cc2)Oc2ccc(NC(=O)Nc3ccc(C(F)(F)F)cc3)cc2CC1=O`: 2.66 µM (active); for `COc1ccc(CN(C)C[C@H]2Oc3ccc(NC(=O)Cc4cn(C)c5ccccc45)cc3CC(=O)N([C@@H](C)CO)C[C@@H]2C)cc1`: 3.08 µM (active); for `C[C@@H]1CN([C@H](C)CO)C(=O)c2cccc(NS(=O)(=O)c3ccc(F)cc3)c2O[C@@H]1CN(C)Cc1ccc(C(=O)Nc2ccccc2N)cc1`: 2.86 µM (active).
Still for that read-out and setting: next, `C[C@H]1CN([C@@H](C)CO)C(=O)c2cccc(NC(=O)C3CC3)c2O[C@@H]1CN(C)Cc1ccc(Oc2ccccc2)cc1`: 3.64 µM (active).
